# From patent US10618869B2, “Oligo-benzamide compounds and their use” (The Board of Regents of the University of Texas System, priority 2010, dated 2020)
# “Also recorded” adds a separate entry of the source.
# Tests used:
# [1] = Storage stability of D2 in DMSO; format: physicochemical; conditions: room temperature and −70° C., storage 60 days
# [2] = tested on: DHT-regulated transcripts; assay: DHT-regulated transcripts, Illumina platform, LNCaP cells; format: cell-based; conditions: of the 341 transcripts significantly upregulated by DHT
# Protocol: FIG. 8. Effect of D2 on DHT-induced transcription: RNA from LNCaP cells untreated or treated with DHT in the absence and presence of D2 were evaluated by the Illumina platform for DHT-regulated transcripts. […] Expression levels of selected genes are shown in the right panel, including AR-regulated genes and those involved in cell proliferation.
# (§1) FIG. 8 confirms these findings by QPCR experiment evaluating the effect of D1 and D2 on DHT-induced TMPRSS and PSA gene expression at the RNA level in LNCaP cells (bottom left panel) and by western blot analyses as evaluated by the effect of D1 and D2 on the expression of PSA, androgen receptor and actin in LAPC4 cells at the protein level. […] Confirmation of these findings were obtained by QPCR and western blot analyses.
# ARE-luciferase reporter = assay: DHT-induced transcription from minimal ARE-luciferase reporter; format: cell-based; conditions: LNCaP, CWR22v1 and LAPC4 cell lines
# From the text: (§2) FIG. 9. […] This effect of D2 could be rescued by overexpression of AR (bottom left panel) or PELP1 (bottom right panel).
# (§3) At the protein level, D2, but not D1, was able to block DHT-induced expression of PSA protein. Again, the suppresion of DHT-induced transcription from an ARE could be overcome by overexpression of either AR or PELP1 ([…]). Overexpression of PELP1 was able to rescue the D2-mediated suppression of DHT-induced transcription nearly back to baseline.
# PSA and TMPRSS promoter = assay: QPCR of PSA and TMPRSS, DHT-induced; format: cell-based
# From the text: as §1, §3
# [3] = tested on: AR binding on PSA promoter; assay: ChIP assay of AR binding on PSA promoter; format: cell-based
# From the text: as §2, §3
# PSA protein = assay: DHT-induced PSA protein expression (western blot); format: cell-based; conditions: protein level
# From the text: as §1, §3
# [4] = tested on: PCa cell lines that contain AR; assay: DHT-induced proliferation of prostate cancer cells (MTT assay); format: cell-based
# Protocol: (§4) FIGS. 10A-E. D2 blocks proliferation of prostate cancer cells in vitro and in vivo (a) Effect of pretreatment with 100 nM of D1 and D2 on DHT-induced proliferation in multiple prostate cancer cell lines in MTT assay. Numbers are normalized to a baseline of 100, which represents the untreated rate of proliferation. (b) Effect of pretreatment with 100 nM of D1 and D2 on DHT-induced proliferation in LNCaPcells on a Cyquant assay. (c) Dose dependent curve of D2 on proliferation of LAPC4 cells. (d) Rescue of DHT induced proliferation by overexpression of PELP1 following suppression of DHT induced proliferation with 100 nM of D2. (e). Effect of direct intratumoral injections of D1 and D2 on the proliferation of prostate cancer xenografts in animal models: Following establishment of subcutaneous xenografts in animal models, daily direct intratumoral injections of D1 and D2 were performed. Bioluminesence imaging was used to track the growth of the tumors and the effect of D1 and D2 quantitated as shown in the graph.
# (§5) The importance of PELP1 and AR interaction on DHT-mediated proliferation of prostate cancer cells were confirmed using rescue experiments, where D2 suppression of DHT-mediated proliferation was overcome by overexpression of PELP1 in LNCaP PCa cells.
# (§6) In this experiment, cells were plated (2-10×10^3/well) in 96 well plates and subjected to androgen deprivation for 48 hours with phenol-red free RPMI and 1% charcoal stripped fetal bovine serum (CSF). Cells were then treated with either ethanol, EGF or DHT as a positive control for 48 hours. Peptidomimetics were added 2 hours prior to treatment. Cell proliferation was measured using the MTT colorimetric assay.
# as §6, with “Cells” for “In this experiment, cells”, “96-well” for “96 well”, “ethanol” for “ethanol, EGF”, “hours” for “hours.”
# [5] = tested on: AR-negative PCa cell lines such as DU145 or PC3; assay: DHT-induced proliferation of AR-negative PCa cell lines; format: cell-based
# Protocol: as §4, §5
# [6] = tested on: prostate cancer xenografts; assay: Subcutaneous prostate cancer xenografts; format: in vivo, nude mice
# Protocol: as §4
# They have shown that this synthetic peptidomimetic D2 is capable of blocking AR-PELP-1 interaction, nuclear translocation of AR, AR mediated genomic signaling as well as DHT-mediated proliferation of prostate cancer cells in vitro. The IC50 of D2 appears to be around 40 nM. […]
# erk = erk phosphorylation after serum starvation (western blot, FIG. 16); format: cell-based; conditions: following serum starvation, D1 at higher concentrations (500 nM)
# Protocol: FIG. 16. Evidence for utility of higher concentrations of D1 in blocking erk phosphorylation: following serum starvation, cells were treated with either D1 or D2 and assessed for their ability to block erk phosphorylation.
# D2, and to a less extent D1, targets a validated target in prostate cancer, has the potential to be an AR-selective modulator, provides a novel mechanism of action, and will likely provide a sustained effect in the context of therapy.
# LNCaP cells = assay: Uptake of fluorescein analogues of D2 by LNCaP cells; format: cell-based; conditions: summary statement
# Protocol: FIGS. 14A-C. Effect of chemical conjugation of Fluorescein to D2 at the amino and carboxy terminus (FIG. 14A) on uptake by LnCaP cells at 4 hours (FIG. 14B) and on DHT-induced proliferation of PCa cells (FIG. 14C).
# In FIG. 14, two fluorescent analogues of D2 were prepared, one by introducing a fluorescein moiety to the C-terminus of D2 (CF1-D2) and the other by placing it at the N-terminus (CF2-D2).
# prostate cancer cells = assay: Toxicity in vitro and in vivo
# From the text: The peptidomimetics of the present invention are non-toxic under in vitro and in vivo conditions. The development of these peptidomimetics represents a quantum leap in the development of a drug to target AR signaling. […] In addition to improvements in the helical face and presentation of the leucines, the inventors have proven efficacy of this system against prostate cancer cell proliferation both in vitro and in vivo. Thus, in contrast to existing technology, the inventors have developed and tested an active peptidomimetic against prostate cancer and other androgen receptor involved cancers.
# They have shown that this synthetic peptidomimetic D2 is capable of blocking AR-PELP-1 interaction, nuclear translocation of AR, AR mediated genomic signaling as well as DHT-mediated proliferation of prostate cancer cells in vitro. The IC50 of D2 appears to be around 40 nM. The effect of the D2 peptidomimetic appears to be specific to blocking AR-PELP-1 interaction, as overexpression of AR or PELP-1 may overcome D2-mediated blockade. […] In comparison, administration of either control peptidomimetics or control soluent has no effect on the growth of prostate cancer cells in vitro or in vivo. In addition, the inventors have generated and tested hundreds of variants of D2 and have identified related peptidomimetics with similar or equivalent potency.
compound,measurement,setting,value
COC(=O)c1ccc(NC(=O)c2ccc([N+](=O)[O-])c(OCC(C)C)c2)c(OCC(C)C)c1 [D2],stability in DMSO,[1],stable in DMSO
same,DHT-upregulated genes reduced back to baseline,[2],219 genes
same,DHT-induced transcription from minimal ARE-luciferase reporter,ARE-luciferase reporter,able to block; also recorded: block DHT-Induced gene expression
same,DHT-induced transcription from ARE-driven promoters at RNA level (QPCR),PSA and TMPRSS promoter,block DHT-induced transcription from ARE-driven promoters was confirmed
same,DHT-induced AR binding on PSA promoter (ChIP),[3],blocked DHT-induced AR binding; also recorded: blocked AR binding to its cognate DNA sequence
same,DHT-induced expression of PSA protein,PSA protein,able to block
same,"activity on the proliferation of prostate cancer cells (FIGS. 17, 19A-N)","[4]; DHT-induced proliferation, MTT assay, structure-function series",good activity
same,DHT-induced proliferation of PCa cells,"[4]; LNCaP, LAPC4, C4-2, RWPE-1, CWR22v1, VCaP, MDAPCa 2b, pretreatment (100 nM in FIG. 10)",prevented; also recorded: does block
same,IC50,"[4]; MTT assays, in vitro, read-out: IC50, DHT-mediated proliferation of PCa cells",~40 nM
same,DHT-induced proliferation of AR-negative PCa cell lines,[5],but not AR-negative PCa cell lines
same,growth of prostate cancer cells implanted subcutaneously,"[6]; nude mice, intratumoral or intraperitoneal administration",significantly abrogate the growth
same,AR-PELP1 complex formation in xenograft tumors,[6]; protein extracts of tumors after daily intratumoral injections,biologically active in blocking AR-PELP1 interaction; also recorded: able to block
same,erk activation / phosphorylation,erk,blocks at lower concentrations
same,entry into prostate cancer cells,LNCaP cells,enters the prostate cancer cells
same,toxicity,prostate cancer cells,non-toxic to prostate cancer cells
